Measured values as given in ChEMBL document CHEMBL3991601, “The target landscape of clinical kinase drugs” (Science, 2017).
Active and inactive are the calls of the source. Rule as the data show it, for most assays here: actives have a measured Kd and inactives only a lower limit.

Target: Calcium/calmodulin-dependent protein kinase type II subunit delta (Homo sapiens, UniProt Q13557)
Also: in the data inactive means no Kd found up to 30 µM.

Sequence of Calcium/calmodulin-dependent protein kinase type II subunit delta (Q13557 whole entry): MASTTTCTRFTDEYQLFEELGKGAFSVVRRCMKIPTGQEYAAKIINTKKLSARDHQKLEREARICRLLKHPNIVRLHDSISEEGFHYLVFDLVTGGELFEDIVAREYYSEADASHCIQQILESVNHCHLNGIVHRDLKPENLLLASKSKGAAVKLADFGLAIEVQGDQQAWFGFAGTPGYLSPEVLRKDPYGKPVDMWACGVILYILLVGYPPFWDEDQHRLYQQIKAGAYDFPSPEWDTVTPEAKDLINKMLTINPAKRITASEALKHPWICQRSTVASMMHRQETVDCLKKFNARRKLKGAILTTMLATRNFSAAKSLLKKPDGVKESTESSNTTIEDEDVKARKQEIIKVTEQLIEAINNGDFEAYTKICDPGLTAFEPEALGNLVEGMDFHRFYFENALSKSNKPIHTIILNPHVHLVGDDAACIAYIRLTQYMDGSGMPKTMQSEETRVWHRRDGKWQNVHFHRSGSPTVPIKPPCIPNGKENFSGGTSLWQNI

| Compound | Kd |
| --- | --- |
| Cn1cc(-c2ccc3nnc(C(F)(F)c4ccc5ncccc5c4)n3n2)cn1 [JNJ-38877605] | > 30 µM (inactive) |
| COC(=O)[C@@]1(O)C[C@H]2O[C@]1(C)n1c3ccccc3c3c4c(c5c6ccccc6n2c5c31)C(=O)NC4 [K-252A] | 0.19 µM (active) |
| Cc1c(F)cc(C(=O)NC2CC2)cc1-c1ccc(C(=O)NCC(C)(C)C)cn1 [LOSMAPIMOD] | > 30 µM (inactive) |
| Cn1cc(-c2ccc(F)c(C(F)(F)F)c2)nc1C1CCN(c2ncnc3[nH]ncc23)CC1 [LY-2584702] | > 30 µM (inactive) |
| C1=C/COCc2cc(ccc2OCCN2CCCC2)Nc2nccc(n2)-c2cccc(c2)COC/1 [PACRITINIB] | > 30 µM (inactive) |

Target: T1, Discoidin domain-containing receptor 2 (Homo sapiens, UniProt Q16832)
T1 sequence (Q16832 whole entry): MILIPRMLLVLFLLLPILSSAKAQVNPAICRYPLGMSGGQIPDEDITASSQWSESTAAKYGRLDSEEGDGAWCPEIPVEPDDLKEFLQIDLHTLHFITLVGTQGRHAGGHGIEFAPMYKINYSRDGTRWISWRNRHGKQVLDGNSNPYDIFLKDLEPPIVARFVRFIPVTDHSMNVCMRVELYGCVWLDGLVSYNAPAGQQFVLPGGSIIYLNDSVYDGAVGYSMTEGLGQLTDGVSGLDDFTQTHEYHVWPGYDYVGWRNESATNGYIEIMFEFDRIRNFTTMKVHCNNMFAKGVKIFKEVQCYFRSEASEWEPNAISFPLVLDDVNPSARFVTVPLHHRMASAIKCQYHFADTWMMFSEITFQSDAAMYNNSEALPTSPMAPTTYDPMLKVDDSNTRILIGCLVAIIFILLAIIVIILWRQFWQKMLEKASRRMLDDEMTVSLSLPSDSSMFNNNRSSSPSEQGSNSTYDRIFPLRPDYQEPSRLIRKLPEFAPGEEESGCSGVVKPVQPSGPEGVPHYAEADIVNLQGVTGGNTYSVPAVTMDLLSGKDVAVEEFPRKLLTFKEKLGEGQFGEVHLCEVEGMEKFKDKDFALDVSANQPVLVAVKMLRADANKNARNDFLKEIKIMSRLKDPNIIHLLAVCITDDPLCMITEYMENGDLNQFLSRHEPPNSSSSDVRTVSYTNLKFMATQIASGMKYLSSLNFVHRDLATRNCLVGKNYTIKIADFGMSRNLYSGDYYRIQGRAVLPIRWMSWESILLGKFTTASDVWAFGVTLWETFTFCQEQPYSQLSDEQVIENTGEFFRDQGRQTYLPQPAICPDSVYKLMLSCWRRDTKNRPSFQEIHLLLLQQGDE

| Compound | Kd |
| --- | --- |
| Cn1cc(-c2ccc3nnc(C(F)(F)c4ccc5ncccc5c4)n3n2)cn1 [JNJ-38877605] | > 30 µM (inactive) |
| COC(=O)[C@@]1(O)C[C@H]2O[C@]1(C)n1c3ccccc3c3c4c(c5c6ccccc6n2c5c31)C(=O)NC4 [K-252A] | > 30 µM (inactive) |
| Cc1c(F)cc(C(=O)NC2CC2)cc1-c1ccc(C(=O)NCC(C)(C)C)cn1 [LOSMAPIMOD] | > 30 µM (inactive) |
| Cn1cc(-c2ccc(F)c(C(F)(F)F)c2)nc1C1CCN(c2ncnc3[nH]ncc23)CC1 [LY-2584702] | > 30 µM (inactive) |
| C1=C/COCc2cc(ccc2OCCN2CCCC2)Nc2nccc(n2)-c2cccc(c2)COC/1 [PACRITINIB] | > 30 µM (inactive) |

Target: Casein kinase I isoform alpha (Homo sapiens, UniProt P48729)
Sequence (P48729 whole entry, canonical isoform): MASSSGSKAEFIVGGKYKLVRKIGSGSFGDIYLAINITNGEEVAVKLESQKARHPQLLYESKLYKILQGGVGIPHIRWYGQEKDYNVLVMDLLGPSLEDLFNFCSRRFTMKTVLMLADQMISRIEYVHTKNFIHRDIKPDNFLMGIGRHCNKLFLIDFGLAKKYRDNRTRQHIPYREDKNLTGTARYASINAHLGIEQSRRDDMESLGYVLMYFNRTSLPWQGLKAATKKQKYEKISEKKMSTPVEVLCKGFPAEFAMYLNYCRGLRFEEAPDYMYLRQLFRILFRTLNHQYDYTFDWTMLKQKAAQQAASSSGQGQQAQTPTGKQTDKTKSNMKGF

| Compound | Kd |
| --- | --- |
| Cn1cc(-c2ccc3nnc(C(F)(F)c4ccc5ncccc5c4)n3n2)cn1 [JNJ-38877605] | > 30 µM (inactive) |
| COC(=O)[C@@]1(O)C[C@H]2O[C@]1(C)n1c3ccccc3c3c4c(c5c6ccccc6n2c5c31)C(=O)NC4 [K-252A] | > 30 µM (inactive) |
| Cc1c(F)cc(C(=O)NC2CC2)cc1-c1ccc(C(=O)NCC(C)(C)C)cn1 [LOSMAPIMOD] | > 30 µM (inactive) |
| Cn1cc(-c2ccc(F)c(C(F)(F)F)c2)nc1C1CCN(c2ncnc3[nH]ncc23)CC1 [LY-2584702] | > 30 µM (inactive) |
| C1=C/COCc2cc(ccc2OCCN2CCCC2)Nc2nccc(n2)-c2cccc(c2)COC/1 [PACRITINIB] | > 30 µM (inactive) |

Target: T2, Serine/threonine-protein kinase TAO3 (Homo sapiens, UniProt Q9H2K8)
T2 sequence (Q9H2K8 whole entry): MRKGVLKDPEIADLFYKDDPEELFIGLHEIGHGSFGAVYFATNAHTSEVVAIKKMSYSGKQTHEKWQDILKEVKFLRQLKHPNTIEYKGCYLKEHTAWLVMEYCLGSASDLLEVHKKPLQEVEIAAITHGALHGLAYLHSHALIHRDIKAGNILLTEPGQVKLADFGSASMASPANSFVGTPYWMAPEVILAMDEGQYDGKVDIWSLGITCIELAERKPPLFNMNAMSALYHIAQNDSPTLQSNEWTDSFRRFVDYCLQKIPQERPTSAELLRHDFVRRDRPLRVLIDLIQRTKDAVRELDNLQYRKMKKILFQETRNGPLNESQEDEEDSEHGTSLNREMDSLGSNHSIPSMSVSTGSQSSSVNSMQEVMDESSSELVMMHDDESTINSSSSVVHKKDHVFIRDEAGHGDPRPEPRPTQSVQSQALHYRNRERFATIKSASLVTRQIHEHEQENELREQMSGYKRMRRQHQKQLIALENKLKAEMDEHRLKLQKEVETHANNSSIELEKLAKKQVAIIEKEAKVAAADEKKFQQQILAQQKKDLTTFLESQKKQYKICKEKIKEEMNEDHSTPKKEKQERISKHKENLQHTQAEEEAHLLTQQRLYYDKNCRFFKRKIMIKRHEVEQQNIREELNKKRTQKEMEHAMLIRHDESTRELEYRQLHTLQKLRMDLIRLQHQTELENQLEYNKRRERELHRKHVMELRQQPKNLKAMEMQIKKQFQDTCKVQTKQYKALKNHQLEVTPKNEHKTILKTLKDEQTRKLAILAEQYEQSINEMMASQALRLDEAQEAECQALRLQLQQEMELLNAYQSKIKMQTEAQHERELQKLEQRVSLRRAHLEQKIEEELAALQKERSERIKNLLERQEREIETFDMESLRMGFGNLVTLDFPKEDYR

| Compound | Kd |
| --- | --- |
| Cn1cc(-c2ccc3nnc(C(F)(F)c4ccc5ncccc5c4)n3n2)cn1 [JNJ-38877605] | > 30 µM (inactive) |
| COC(=O)[C@@]1(O)C[C@H]2O[C@]1(C)n1c3ccccc3c3c4c(c5c6ccccc6n2c5c31)C(=O)NC4 [K-252A] | > 30 µM (inactive) |
| Cc1c(F)cc(C(=O)NC2CC2)cc1-c1ccc(C(=O)NCC(C)(C)C)cn1 [LOSMAPIMOD] | > 30 µM (inactive) |
| Cn1cc(-c2ccc(F)c(C(F)(F)F)c2)nc1C1CCN(c2ncnc3[nH]ncc23)CC1 [LY-2584702] | > 30 µM (inactive) |
| C1=C/COCc2cc(ccc2OCCN2CCCC2)Nc2nccc(n2)-c2cccc(c2)COC/1 [PACRITINIB] | > 30 µM (inactive) |

Target: Ribosomal protein S6 kinase alpha-6 (Homo sapiens, UniProt Q9UK32)
Sequence (Q9UK32 whole entry): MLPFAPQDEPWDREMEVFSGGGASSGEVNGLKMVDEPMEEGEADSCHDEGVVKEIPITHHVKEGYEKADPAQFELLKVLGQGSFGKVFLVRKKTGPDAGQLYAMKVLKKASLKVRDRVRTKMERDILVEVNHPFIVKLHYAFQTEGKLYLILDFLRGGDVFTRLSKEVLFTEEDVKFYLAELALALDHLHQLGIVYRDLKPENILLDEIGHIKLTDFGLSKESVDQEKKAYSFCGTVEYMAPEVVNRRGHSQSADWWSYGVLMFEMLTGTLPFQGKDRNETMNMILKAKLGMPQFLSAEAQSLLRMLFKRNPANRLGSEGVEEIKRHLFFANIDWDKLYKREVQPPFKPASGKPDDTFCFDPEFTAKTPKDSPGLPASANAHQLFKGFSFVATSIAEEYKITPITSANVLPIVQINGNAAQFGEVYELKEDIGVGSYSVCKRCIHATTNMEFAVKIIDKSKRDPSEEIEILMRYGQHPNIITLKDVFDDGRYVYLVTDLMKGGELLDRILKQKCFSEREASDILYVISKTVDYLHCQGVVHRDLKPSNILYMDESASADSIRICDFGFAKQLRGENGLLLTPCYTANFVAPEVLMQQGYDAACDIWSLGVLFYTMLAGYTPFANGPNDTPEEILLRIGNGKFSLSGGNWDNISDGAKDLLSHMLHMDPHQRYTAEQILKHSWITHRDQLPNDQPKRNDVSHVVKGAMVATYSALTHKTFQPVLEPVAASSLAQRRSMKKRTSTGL

| Compound | Kd |
| --- | --- |
| Cn1cc(-c2ccc3nnc(C(F)(F)c4ccc5ncccc5c4)n3n2)cn1 [JNJ-38877605] | > 30 µM (inactive) |
| COC(=O)[C@@]1(O)C[C@H]2O[C@]1(C)n1c3ccccc3c3c4c(c5c6ccccc6n2c5c31)C(=O)NC4 [K-252A] | 2.18 µM (active) |
| Cc1c(F)cc(C(=O)NC2CC2)cc1-c1ccc(C(=O)NCC(C)(C)C)cn1 [LOSMAPIMOD] | > 30 µM (inactive) |
| Cn1cc(-c2ccc(F)c(C(F)(F)F)c2)nc1C1CCN(c2ncnc3[nH]ncc23)CC1 [LY-2584702] | > 30 µM (inactive) |
| C1=C/COCc2cc(ccc2OCCN2CCCC2)Nc2nccc(n2)-c2cccc(c2)COC/1 [PACRITINIB] | > 30 µM (inactive) |

Target: Casein kinase I isoform gamma-1 (Homo sapiens, UniProt Q9HCP0)
Sequence (Q9HCP0 whole entry, canonical isoform): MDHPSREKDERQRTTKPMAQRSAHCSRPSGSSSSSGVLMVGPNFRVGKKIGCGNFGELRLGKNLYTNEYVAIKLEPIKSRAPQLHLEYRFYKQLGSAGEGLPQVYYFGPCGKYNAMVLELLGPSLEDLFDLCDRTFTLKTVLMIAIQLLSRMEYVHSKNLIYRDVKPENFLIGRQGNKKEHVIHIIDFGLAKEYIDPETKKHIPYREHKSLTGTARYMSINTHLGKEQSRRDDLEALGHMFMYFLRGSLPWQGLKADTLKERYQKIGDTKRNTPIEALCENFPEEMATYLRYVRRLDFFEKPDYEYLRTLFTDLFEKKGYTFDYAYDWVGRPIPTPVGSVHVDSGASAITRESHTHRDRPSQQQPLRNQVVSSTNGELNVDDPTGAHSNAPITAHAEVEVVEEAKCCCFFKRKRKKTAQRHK

| Compound | Kd |
| --- | --- |
| Cn1cc(-c2ccc3nnc(C(F)(F)c4ccc5ncccc5c4)n3n2)cn1 [JNJ-38877605] | > 30 µM (inactive) |
| COC(=O)[C@@]1(O)C[C@H]2O[C@]1(C)n1c3ccccc3c3c4c(c5c6ccccc6n2c5c31)C(=O)NC4 [K-252A] | > 30 µM (inactive) |
| Cc1c(F)cc(C(=O)NC2CC2)cc1-c1ccc(C(=O)NCC(C)(C)C)cn1 [LOSMAPIMOD] | > 30 µM (inactive) |
| Cn1cc(-c2ccc(F)c(C(F)(F)F)c2)nc1C1CCN(c2ncnc3[nH]ncc23)CC1 [LY-2584702] | > 30 µM (inactive) |
| C1=C/COCc2cc(ccc2OCCN2CCCC2)Nc2nccc(n2)-c2cccc(c2)COC/1 [PACRITINIB] | > 30 µM (inactive) |

Target: Glycogen synthase kinase-3 alpha (Homo sapiens, UniProt P49840)
Sequence (P49840 whole entry): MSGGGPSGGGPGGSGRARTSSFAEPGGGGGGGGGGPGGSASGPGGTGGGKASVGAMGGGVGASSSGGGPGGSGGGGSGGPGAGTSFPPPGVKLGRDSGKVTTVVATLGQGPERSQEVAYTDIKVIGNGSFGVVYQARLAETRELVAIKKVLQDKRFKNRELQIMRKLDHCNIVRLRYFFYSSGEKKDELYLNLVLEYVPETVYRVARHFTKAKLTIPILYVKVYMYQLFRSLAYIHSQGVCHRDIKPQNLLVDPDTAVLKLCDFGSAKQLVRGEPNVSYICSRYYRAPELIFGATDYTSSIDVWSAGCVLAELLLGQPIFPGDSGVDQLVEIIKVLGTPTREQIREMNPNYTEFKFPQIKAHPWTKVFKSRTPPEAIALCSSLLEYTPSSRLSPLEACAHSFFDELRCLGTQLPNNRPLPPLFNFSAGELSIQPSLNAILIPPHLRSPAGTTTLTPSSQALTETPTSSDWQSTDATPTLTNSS

| Compound | Kd |
| --- | --- |
| Cn1cc(-c2ccc3nnc(C(F)(F)c4ccc5ncccc5c4)n3n2)cn1 [JNJ-38877605] | > 30 µM (inactive) |
| COC(=O)[C@@]1(O)C[C@H]2O[C@]1(C)n1c3ccccc3c3c4c(c5c6ccccc6n2c5c31)C(=O)NC4 [K-252A] | > 30 µM (inactive) |
| Cc1c(F)cc(C(=O)NC2CC2)cc1-c1ccc(C(=O)NCC(C)(C)C)cn1 [LOSMAPIMOD] | > 30 µM (inactive) |
| Cn1cc(-c2ccc(F)c(C(F)(F)F)c2)nc1C1CCN(c2ncnc3[nH]ncc23)CC1 [LY-2584702] | > 30 µM (inactive) |
| C1=C/COCc2cc(ccc2OCCN2CCCC2)Nc2nccc(n2)-c2cccc(c2)COC/1 [PACRITINIB] | 5.19 µM (active) |

Target: T3, dCTP pyrophosphatase 1 (Homo sapiens, UniProt Q9H773)
T3 sequence (Q9H773 whole entry): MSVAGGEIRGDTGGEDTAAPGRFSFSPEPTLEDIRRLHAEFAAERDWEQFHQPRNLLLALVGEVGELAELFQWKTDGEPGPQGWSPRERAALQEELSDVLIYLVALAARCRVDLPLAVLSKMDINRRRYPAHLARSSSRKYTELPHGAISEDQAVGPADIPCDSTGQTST

| Compound | Kd |
| --- | --- |
| Cn1cc(-c2ccc3nnc(C(F)(F)c4ccc5ncccc5c4)n3n2)cn1 [JNJ-38877605] | > 30 µM (inactive) |
| COC(=O)[C@@]1(O)C[C@H]2O[C@]1(C)n1c3ccccc3c3c4c(c5c6ccccc6n2c5c31)C(=O)NC4 [K-252A] | > 30 µM (inactive) |
| Cc1c(F)cc(C(=O)NC2CC2)cc1-c1ccc(C(=O)NCC(C)(C)C)cn1 [LOSMAPIMOD] | > 30 µM (inactive) |
| Cn1cc(-c2ccc(F)c(C(F)(F)F)c2)nc1C1CCN(c2ncnc3[nH]ncc23)CC1 [LY-2584702] | > 30 µM (inactive) |
| C1=C/COCc2cc(ccc2OCCN2CCCC2)Nc2nccc(n2)-c2cccc(c2)COC/1 [PACRITINIB] | > 30 µM (inactive) |
